Patent US12251382B2, “Substituted amino-pyrimidine compound for use in a method for treatment and prevention of multiple sclerosis” (Merck Patent GmbH, priority 2018, dated 2025)
“Also recorded” adds a separate entry of the source.

Legend:
[1] = Phase I Part 2: plasma pharmacokinetics Day 1 and Day 14 of once daily dosing; assay type: in vivo, human; settings: for MRT: human, plasma, oral
Description: To test dose proportionality, PK parameters were analyzed graphically as AUC/dose and Cmax/dose and via a power model (PK parameter=α*dose^β) approach with log-transformed PK parameters as the dependent variable and log-transformed dose as the independent variable.

M1 macrophages = settings: in vitro; cited from earlier work
B cells = settings: in vitro and ex vivo; cited from earlier work
[2] = tested on: B- and T-cell-mediated EAE mouse models; settings: cited from earlier work
[3] = multiple-dose study Day 1, 25 mg, geometric mean
[4] = multiple-dose study Day 1, 75 mg, geometric mean
[5] = multiple-dose study Day 1, 200 mg, geometric mean
[6] = multiple-dose study Day 14, 25 mg once daily, geometric mean
[7] = multiple-dose study Day 14, 75 mg once daily, geometric mean
[8] = multiple-dose study Day 14, 200 mg once daily, geometric mean

With C=CC(=O)N1CCC(CNc2ncnc(N)c2-c2ccc(Oc3ccccc3)cc2)CC1 [Evobrutinib, 1-(4-(((6-amino-5-(4-phenoxyphenyl)pyrimidin-4-yl)amino)methyl)piperidin-1-yl)prop-2-en-1-one] the “Dose proportionality of AUC and Cmax” value ([1]; 25-500 mg single dose, 25-200 mg once daily multiple dose) was “demonstrated following multiple dosing of 25-200 mg; also recorded: dose-proportional over a 25-500 mg single-dose range and a 25-200 mg once daily multiple-dose range”, the “Time dependency of PK” value ([1]; 14 days repeated daily dosing) was “no time dependency” and the MRT ([1]; 25 mg, multiple-dose study Day 1, 25 mg, geometric mean) was 1.66 h. It also gave an MRT ([1]; 25 mg, multiple-dose study Day 14, 25 mg once daily, geometric mean) of 1.81 h, an MRT ([1]; 75 mg, multiple-dose study Day 1, 75 mg, geometric mean) of 1.67 h and an MRT ([1]; 75 mg, multiple-dose study Day 14, 75 mg once daily, geometric mean) of 1.79 h. The MRT ([1]; 200 mg, multiple-dose study Day 1, 200 mg, geometric mean) was 1.72 h, the MRT ([1]; 200 mg, multiple-dose study Day 14, 200 mg once daily, geometric mean) was 1.92 h and the “AUC0−∞” value [1, 3] was 123 ng·h/mL. For the same compound, the Cmax [1, 3] was 99.7 ng/mL, the T1/2 [1, 3] was 1.70 h and the “AUC0−∞” value [1, 4] was 325 ng·h/mL. The CL/F [1, 4] was 3850 mL/min, the Cmax [1, 4] was 254 ng/mL and the T1/2 [1, 4] was 1.86 h. The “AUC0−∞” value [1, 5] was 1110 ng·h/mL, the Cmax [1, 5] was 797 ng/mL and the T1/2 [1, 5] was 2.49 h. For the same compound, the “AUC0−24h” value [1, 6] was 126 ng·h/mL, the Cmax [1, 6] was 80.4 ng/mL and the T1/2 [1, 6] was 1.59 h. The “AUC0−24h” value [1, 7] was 345 ng·h/mL, the Cmax [1, 7] was 252 ng/mL and the T1/2 [1, 7] was 2.29 h. The “AUC0−24h” value [1, 8] was 1,210 ng * h/mL, the Cmax [1, 8] was 782 ng/mL and the T1/2 [1, 8] was 3.62 h. The “Accumulation with multiple dosing” value ([1]; once daily, 14 days) was “no accumulation with multiple dosing; also recorded: without accumulation after multiple dosing”, the “t½ after multiple dosing” value ([1]; range across 25-200 mg once daily) was 1.6 to 3.6 h and the Effects on macrophages (M1 macrophages) was “inhibiting the activation, differentiation and polarisation of M1 macrophages and by promoting the M2 macrophage-phenotype”. For the same compound, the “B-cell activation and maturation” value (B cells) was “inhibits B-cell activation and maturation from naïve to antigen-activated B cells” and the “CNS inflammation, demyelination and disease severity (clinical scoring)” value [2] was “potential to reduce CNS inflammation and demyelination and ameliorate disease severity”.
